In article PMC4163382, “Symbiotic Plant Peptides Eliminate Candida albicans Both In Vitro and in an Epithelial Infection Model and Inhibit the Proliferation of Immortalized Human Cells” (BioMed Research International, 2014):

Assays:
C. albicans WO-1 cells = experiment: Cell permeability assay (calcein release); format: cell-based, Candida albicans; conditions: calcein-loaded C. albicans WO-1, 10 mM potassium phosphate buffer pH 7.0, peptide 50 μg/mL, fluorescence 485/530 nm
Method: Cell permeability was monitored by the release of the intracellularly accumulated dye calcein. Overnight C. albicans WO-1 cells were washed twice with and resuspended in 10 mM potassium phosphate buffer (pH = 7.0) at a concentration of 10^7 cells mL^−1. Cells were loaded with acetomethoxy-calcein at a final concentration of 5 μM for 2 hours at room temperature. Cells were washed three times to remove the extracellular dye and then 100 μL of the suspension was transferred to FIA black 96-well plates. NCR peptides were then added at a concentration of 50 mg/L, and the release of calcein (formed by the cells' esterases) was measured by its fluorescence in a microtiter plate reader (FLUOstar OPTIMA) at excitation and emission wavelengths of 485 nm and 530 nm, respectively. Calcein efflux was calculated as previously reported.

[1] = system: PK E6/E7 vaginal epithelial cells; experiment: MTT assay, cytotoxicity on human epithelial cells; format: cell-based; conditions: MTT assay, PBgluc, 12.5 to 100 μg/mL, for cationic peptides antifungal concentration range (<25 μg/mL)
Method: (§1) The immortalized human vaginal epithelial cell line PK E6/E7 [15] was cultured in serum-free CKM supplemented with 0.005 μg/mL recombinant epidermal growth factor, 50 μg/mL bovine pituitary extract, L-glutamine, and antibiotic/antimycotic solution (Life Technologies) in a CO2 thermostat at 37°C [16]. Cells at 60–70% confluence were used in subsequent experiments.
MTT Assay. PK E6/E7 vaginal epithelial cells were seeded in the wells of a 96-well plate at a density of 1 × 10^4 cells per well in a final volume of 100 μL. CKM was then aspirated and 100 μL of the appropriate peptide diluted in PBgluc was added. After 3 hours of incubation at 37°C, the peptide solution was removed, and the cells were let to regenerate in CKM for 24 hours. Then 5 mg/mL 3-[4,5-dimethylthiazol-2-yl]-2,5-diphenyltetrazolium bromide (MTT) was added to each well and the plate was placed to 37°C for 4 hours. The amount of formazan formed by the activity of the mitochondrial succinate dehydrogenase of living cells was measured by using a microtiter plate reader (FLUOstar OPTIMA) at the wavelength of 560 nm.
10 μg/mL of primycin, a macrolide lactone antibiotic complex that rapidly kills PK cells, was used as a control for cytotoxicity in both assays.
(§2) MTT assays and impedance measurements were performed in at least four technical parallels and two biological replicates; all the data are presented as mean ± standard deviation. Significance was calculated with Newman-Keuls post hoc test using the GraphPad Prism version 5 for Windows and a probability (P) value of less than 0.05 was considered significant.

[2] = system: PK E6/E7 vaginal epithelial cells; experiment: Real-Time Cell Analysis (RTCA), proliferation of human epithelial cells; format: cell-based; conditions: 3 hours treatment in PBgluc, cell index 40 hours after treatment
Method: as §1
Real-Time Cell Analysis (RTCA). 7 × 10^4 PK E6/E7 cells per well were seeded in 96-well E-plates (ACEA Biosciences) in which the bottoms of the wells were covered with microelectrodes and the epithelial cells were allowed to attach to the bottom of the wells for 20 hours. CKM was then aspirated and the cells were treated with 100 μL of the peptides diluted in PBgluc. […] The cell index at the beginning of the measurement after treatment was considered as 100% and values measured at 40 hours were expressed (see Supplementary Figure 1in Supplementary Materials available online at http://dx.doi.org/10.1155/2014/320796). […]
as §2

[3] = system: PK E6/E7 vaginal epithelial cells infected with C. albicans WO-1; experiment: Vaginal epithelial cell - C. albicans coculture (RTCA); format: cell-based, human; conditions: PK E6/E7 + C. albicans WO-1, MOI of 5, 3 hours coculture then peptide 3 hours in PBgluc at both 25 and 50 μg/mL, RTCA at 40 hours
Method: PK E6/E7 cells were seeded in 96-well E-plates as described above for RTCA. On the next day, an overnight culture of C. albicans WO-1 was diluted to OD = 1 and let to grow until OD = 1.5–2. The fungal cell suspension was diluted in antibiotic/antimycotic-free CKM and was added to the human cells with a multiplicity of infection (MOI) of 5. After 3 hours of coculture at 37°C, CKM medium was replaced with NCR peptides in PBgluc. After 3 hours of incubation, peptides were removed and 200 μL of fresh antibiotic/antimycotic-free CKM was added. Subsequent measurements were performed as described above.
as §2

AFERTETRMLTIPCTSDANCPKVISPCHTKCFDGFCGWYIEGSYEGP [NCR001, anionic chemically synthesized mature NCR peptide of Medicago truncatula]
Calcein (dye) efflux (C. albicans WO-1 cells): no calcein release
Effect on viability of the human cells [1]: no negative effect
Effect on proliferation of the human cells [2]: no negative effect
Prevention of C. albicans induced epithelial cell death [3]: unable to prevent vaginal epithelial cell death
